Broadly, the IC50 is the concentration needed to halve the response being measured.

These results are taken from patent publication US8426588B2, “Phenylalanine derivatives” (Ajinomoto Co, Inc., priority 2000, dated 2013).

Experiment [1] deals with T1, integrin α4β1 (Homo sapiens, UniProt P05556+P13612).
T1 construct: cell strain Jurkat (ATCC TIB-152) of human T cells, known to express integrin α4β1; endogenous in cells; host or cells: Jurkat (ATCC TIB-152)
Briefly: VCAM antagonist activity (VCAM-1/α4β1 binding assay), Jurkat cells binding to VCAM-1. The format is cell-based. The following applies: Jurkat human T cells binding to recombinant human VCAM-1; read-out: VCAM antagonistic activity (IC50) α4β1.

Experiment [2] deals with T2, integrin α4β7 (Homo sapiens, UniProt P13612+P26010).
T2 construct: lymphoma cell strain RPMI-8866 of human B cells, known to express integrin α4β7; endogenous in cells; host or cells: RPMI-8866
T2 sequence (P13612 34-1032): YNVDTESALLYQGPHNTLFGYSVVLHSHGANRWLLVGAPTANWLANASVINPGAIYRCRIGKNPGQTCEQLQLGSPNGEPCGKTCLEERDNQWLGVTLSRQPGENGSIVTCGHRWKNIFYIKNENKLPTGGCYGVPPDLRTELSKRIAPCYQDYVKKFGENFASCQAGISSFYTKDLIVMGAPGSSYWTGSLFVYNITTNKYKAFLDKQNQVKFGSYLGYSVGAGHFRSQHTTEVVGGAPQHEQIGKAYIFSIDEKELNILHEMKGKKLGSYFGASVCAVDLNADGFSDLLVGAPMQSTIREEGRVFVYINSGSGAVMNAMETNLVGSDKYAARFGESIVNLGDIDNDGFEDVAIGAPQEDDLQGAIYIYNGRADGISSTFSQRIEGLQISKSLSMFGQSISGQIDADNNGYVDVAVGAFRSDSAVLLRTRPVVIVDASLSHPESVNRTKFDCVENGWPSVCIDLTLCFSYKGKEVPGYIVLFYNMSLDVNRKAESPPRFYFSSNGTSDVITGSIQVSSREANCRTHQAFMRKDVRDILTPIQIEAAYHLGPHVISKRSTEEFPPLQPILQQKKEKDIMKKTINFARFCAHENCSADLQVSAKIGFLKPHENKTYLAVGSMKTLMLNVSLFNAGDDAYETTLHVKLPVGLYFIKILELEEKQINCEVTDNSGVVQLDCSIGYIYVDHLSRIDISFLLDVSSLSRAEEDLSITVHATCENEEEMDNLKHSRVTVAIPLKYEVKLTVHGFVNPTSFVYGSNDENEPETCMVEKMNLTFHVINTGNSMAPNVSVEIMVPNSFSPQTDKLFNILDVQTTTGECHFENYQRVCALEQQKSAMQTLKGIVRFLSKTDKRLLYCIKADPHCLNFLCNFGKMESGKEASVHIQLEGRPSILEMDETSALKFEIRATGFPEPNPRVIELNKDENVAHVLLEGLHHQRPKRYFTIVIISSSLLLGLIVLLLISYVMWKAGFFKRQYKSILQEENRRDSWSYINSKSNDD
T2 sequence (P26010 20-798): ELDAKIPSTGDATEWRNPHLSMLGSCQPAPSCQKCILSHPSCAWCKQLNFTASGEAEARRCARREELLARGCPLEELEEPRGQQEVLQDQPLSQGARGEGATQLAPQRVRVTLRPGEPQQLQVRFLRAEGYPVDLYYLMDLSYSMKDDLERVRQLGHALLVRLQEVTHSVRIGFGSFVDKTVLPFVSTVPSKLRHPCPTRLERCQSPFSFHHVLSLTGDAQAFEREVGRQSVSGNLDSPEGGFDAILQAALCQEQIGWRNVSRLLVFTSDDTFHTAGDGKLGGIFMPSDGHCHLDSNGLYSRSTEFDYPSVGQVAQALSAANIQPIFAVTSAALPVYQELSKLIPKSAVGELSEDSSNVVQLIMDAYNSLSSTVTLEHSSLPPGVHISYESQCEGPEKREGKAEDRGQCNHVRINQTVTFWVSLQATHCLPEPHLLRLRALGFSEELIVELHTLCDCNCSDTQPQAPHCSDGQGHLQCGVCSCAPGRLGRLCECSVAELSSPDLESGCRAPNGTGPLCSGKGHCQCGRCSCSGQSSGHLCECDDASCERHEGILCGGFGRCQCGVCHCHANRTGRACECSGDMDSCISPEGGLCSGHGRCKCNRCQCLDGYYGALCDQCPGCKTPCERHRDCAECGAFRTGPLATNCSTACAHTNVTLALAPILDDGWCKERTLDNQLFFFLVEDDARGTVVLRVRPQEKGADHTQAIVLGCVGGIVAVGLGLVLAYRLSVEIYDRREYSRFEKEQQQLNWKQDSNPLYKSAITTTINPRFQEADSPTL
Kind of experiment: VCAM antagonistic activity (VCAM-1/α4β7 binding assay), RPMI-8866 cells binding to VCAM-1. The format is cell-based. The following applies: RPMI-8866 human B lymphoma cells binding to recombinant human VCAM-1; binding buffer with 4 mM MnCl2.

T1 sequence (P05556 21-798, one chain of several): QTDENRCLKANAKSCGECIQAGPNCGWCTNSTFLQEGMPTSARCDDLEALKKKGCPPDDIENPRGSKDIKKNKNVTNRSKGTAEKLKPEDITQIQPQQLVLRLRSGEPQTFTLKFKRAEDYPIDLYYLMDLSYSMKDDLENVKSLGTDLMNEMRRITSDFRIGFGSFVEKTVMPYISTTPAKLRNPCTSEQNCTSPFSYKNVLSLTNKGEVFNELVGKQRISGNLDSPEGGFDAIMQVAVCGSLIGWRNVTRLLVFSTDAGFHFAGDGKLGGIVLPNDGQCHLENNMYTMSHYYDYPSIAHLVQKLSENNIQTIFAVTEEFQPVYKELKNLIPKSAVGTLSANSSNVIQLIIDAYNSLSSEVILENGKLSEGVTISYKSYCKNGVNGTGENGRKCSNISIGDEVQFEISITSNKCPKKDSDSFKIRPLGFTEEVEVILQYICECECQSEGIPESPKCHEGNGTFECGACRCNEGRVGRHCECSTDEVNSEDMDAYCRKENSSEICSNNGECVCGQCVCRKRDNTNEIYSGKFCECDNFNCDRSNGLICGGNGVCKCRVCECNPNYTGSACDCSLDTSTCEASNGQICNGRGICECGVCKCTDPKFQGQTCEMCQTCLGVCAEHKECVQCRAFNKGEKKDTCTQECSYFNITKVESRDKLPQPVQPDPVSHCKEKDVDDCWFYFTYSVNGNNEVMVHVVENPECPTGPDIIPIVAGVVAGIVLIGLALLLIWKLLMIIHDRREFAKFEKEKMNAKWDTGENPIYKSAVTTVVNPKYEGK

For the compound `COc1nc2ccccc2c(=O)n1-c1ccc(C[C@H](NC(=O)c2c(Cl)cccc2Cl)C(=O)O)cc1` [Example 36], the figures for the IC50 in experiment [1] and in experiment [2] were 0.49 µM and 0.0066 µM, respectively.
On the same counts, the results for `Cc1cccc2c1c(=O)n(-c1ccc(C[C@H](NC(=O)c3c(Cl)cccc3Cl)C(=O)O)cc1)c(=O)n2Cc1ccccc1` [Example 97] are 1.5 µM and 0.013 µM.
As for `Cc1cccc2[nH]c(=O)n(-c3ccc(C[C@H](NC(=O)c4c(Cl)cccc4Cl)C(=O)O)cc3)c(=O)c12` [Example 53], the values for the IC50 in experiment [1] and in experiment [2] were 2.46 µM and 0.0661 µM, respectively.
On the same counts, the results for `Cn1c(=O)n(-c2ccc(C[C@H](NC(=O)c3c(Cl)cccc3Cl)C(=O)O)cc2)c(=O)c2c(Cl)cccc21` [Example 187] are 0.026 µM and 0.0032 µM.
